Reference: patent publication US10799494B2, “Combination of respiratory electron transport chain inhibitors with a cytochrome bd inhibitor” (priority 2015, dated 2020)
Values joined by “and” are separate entries in the source; they are usually repeats but may differ in a detail not shown here. Equal values may be shown once.

Tests used:
M. tuberculosis H37Rv = M. tuberculosis H37Rv growth inhibition screen at fixed 5 μM; format: cell-based, Mycobacterium tuberculosis; conditions: 5 μM compound; for activity at 5 µM: Mycobacterium tuberculosis, H37RV, aerobic, read-out: Growth of M. tuberculosis H37Rv (aerobic) at 5 μM of [compounds]
HepG2 cell line = assay: Human cell counter screen (HepG2) cellular toxicity
bovine cytochrome bc1 = bovine cytochrome bc1 (Bos taurus (Bovine), UniProt P00157); assay: Bovine cytochrome bc1 inhibition (cytochrome c reduction, Keilin-Hartree particles); format: biochemical
Chain of bovine cytochrome bc1 (P00157 whole entry, looked up): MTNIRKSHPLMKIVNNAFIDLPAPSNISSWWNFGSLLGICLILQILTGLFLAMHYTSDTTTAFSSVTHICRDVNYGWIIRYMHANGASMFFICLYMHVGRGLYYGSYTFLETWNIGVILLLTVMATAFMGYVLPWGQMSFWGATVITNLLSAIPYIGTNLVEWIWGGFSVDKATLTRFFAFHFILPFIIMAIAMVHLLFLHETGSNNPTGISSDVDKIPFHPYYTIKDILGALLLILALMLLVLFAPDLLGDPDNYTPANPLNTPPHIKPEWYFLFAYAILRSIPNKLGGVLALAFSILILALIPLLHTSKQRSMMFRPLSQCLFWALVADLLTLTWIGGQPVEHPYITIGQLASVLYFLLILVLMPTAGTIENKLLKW

[1] = test system: Mycobacterium tuberculosis (Mtb) H37Rv; assay: MGIT growth inhibition assay, time to positivity; format: cell-based
[2] = biological target: recombinant M. tuberculosis bd-I (Mycobacterium tuberculosis, UniProt L7N662); assay: Steady-state kinetics of quinol:Mtb bd-I activity with artificial quinol substrates; conditions: for specific catalytic activity: FIG. 1, measured at 283 nm
Chain of recombinant M. tuberculosis bd-I (L7N662 1-485): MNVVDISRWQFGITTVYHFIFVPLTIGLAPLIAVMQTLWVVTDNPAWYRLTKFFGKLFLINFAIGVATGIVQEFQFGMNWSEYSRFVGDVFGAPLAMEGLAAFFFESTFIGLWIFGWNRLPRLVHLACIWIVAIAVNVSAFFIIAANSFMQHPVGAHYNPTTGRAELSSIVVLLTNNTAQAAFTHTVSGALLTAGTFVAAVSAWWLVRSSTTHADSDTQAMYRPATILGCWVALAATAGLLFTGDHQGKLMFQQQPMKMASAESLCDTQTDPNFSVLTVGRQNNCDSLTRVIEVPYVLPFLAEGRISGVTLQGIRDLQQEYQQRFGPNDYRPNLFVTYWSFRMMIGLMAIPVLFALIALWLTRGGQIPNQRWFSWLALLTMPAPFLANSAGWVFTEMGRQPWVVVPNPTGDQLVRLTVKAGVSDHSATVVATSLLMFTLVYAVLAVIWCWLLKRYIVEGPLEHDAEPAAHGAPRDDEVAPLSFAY

[3] = biological target: M. tuberculosis cytochrome bd-I (Mycobacterium tuberculosis, UniProt L7N662); format: biochemical
Chain of M. tuberculosis cytochrome bd-I (L7N662 1-485): as above

[4] = 9/79 vs placebo 2/81, […]; cited from earlier work
[5] = test system: COc1c(O)c(C)c(C/C=C(\C)CCC=C(C)C)c(O)c1OC; assay: cells, lysate or membranes named; conditions: pH 7.5
[6] = test system: COc1c(O)c(C)c(CC=C(C)C)c(O)c1OC; assay: cells, lysate or membranes named; conditions: pH 7.5
Mtb H37Rv = assay: In vitro (replicating) Mtb growth inhibition, microplate Alamar blue assay; format: cell-based, Mycobacterium tuberculosis
[7] = Table 6, compounds at 5x IC90, drug free control 11, followed to 74 days
[8] = Table 7 / FIG. 9, compounds at 5x IC90, 7.5×10^5 Mtb cells per tube, drug free control 8, followed to 80 days
[9] = Table 8, WDH-2G-6 3 μM, MTC420 5.5 μM, lansoprazole sulphide 26.5 μM, TMC207 250 nM, media control 10

## COc1ccc2c(=O)c(C)c(-c3ccc(N4CCCCC4)cc3)[nH]c2c1 [RKA-310, 7-methoxy-3-methyl-2-(4-(piperidin-1-yl)phenyl)quinolin-4(1H)-one]
M. tuberculosis H37Rv
  Growth of M. tuberculosis H37Rv (aerobic) at 5 μM of [compounds]: No growth

## CCOC(=O)c1c(-c2ccc(-c3ccc(Cl)cc3)cc2)[nH]c2ccccc2c1=O [WDH-1U-10, Ethyl 2-(4′-chloro-[1,1′-biphenyl]-4-yl)-4-oxo-1,4-dihydroquinoline-3-carboxylate]
M. tuberculosis H37Rv
  activity at 5 µM: 82.2%

## Cc1c(-c2ccc(Cc3ccc(F)cc3)cc2)[nH]c2ccccc2c1=O [LT-9, 2-(4-(4-Fluorobenzyl)phenyl)-3-methylquinolin-4(1H)-one]
HepG2 cell line
  HepG2: >50 µM
M. tuberculosis H37Rv
  activity at 5 µM: 34.7%

## O=c1cc(-c2ccc(Cc3ccc(OC(F)(F)F)cc3)cc2)[nH]c2ccccc12 [RKA-70, 2-(4-(4-(Trifluoromethoxy)benzyl)phenyl)quinolin-4(1H)-one]
HepG2 cell line
  HepG2: >50 µM
M. tuberculosis H37Rv
  activity at 5 µM: 100%
Bovine cytochrome bc1
  IC50: 310 nM

## Cc1c(-c2ccc(Oc3ccc(F)cc3)nc2)[nH]c2ccccc2c1=O [CK-3-14, 2-(6-(4-Fluorophenoxy)pyridin-3-yl)-3-methylquinolin-4(1H)-one]
M. tuberculosis H37Rv
  activity at 5 µM: 100%

## Cc1[nH]c2ccccc2c(=O)c1-c1ccc(Oc2ccc(OC(F)(F)F)cc2)cc1 [PG-203, 2-Methyl-3-(4-(4-(trifluoromethoxy)phenoxy)phenyl)quinolin-4(1H)-one]
M. tuberculosis H37Rv
  activity at 5 µM: 100%

## COc1c(C)c(-c2ccc(Cc3ccccc3)cc2)nc2ccccc12 [CK-3-23, 2-(4-Benzylphenyl)-4-methoxy-3-methylquinoline]
M. tuberculosis H37Rv
  activity at 5 µM: 6.6%

## NNC(=O)c1ccncc1 [INH, Isoniazid]
[1]; [7]
  Time to Positivity: No effect at 74 days
[1]; [8]
  Time to Positivity: No effect

## Cc1ccc2nc(C)c(C(=O)NCc3ccc(Oc4ccc(F)cc4)cc3)n2c1 [AWE 402]
[1]; [7]
  Time to Positivity: 15 days
[1]; [9]
  Time to Positivity: 13 days

## O=c1cc(-c2ccc(Cc3ccc(OC(F)(F)F)cc3)cc2)n(O)c2ccccc12 [RKA-73, 1-Hydroxy-2-(4-(4-(trifluoromethoxy)benzyl)phenyl)quinolin-4(1H)-one]
M. tuberculosis H37Rv
  activity at 5 µM: 100%

## Cc1c(-c2ccc(-c3ccc(OC(F)(F)F)cc3)nc2)[nH]c2ccccc2c1=O [SL-2-25, 3-Methyl-2-(6-(4-(trifluoromethoxy)phenyl)pyridin-3-yl)quinolin-4(1H)-one]
HepG2 cell line
  HepG2: >50 µM
M. tuberculosis H37Rv
  activity at 5 µM: 88.9%
Bovine cytochrome bc1
  IC50: 890 nM

## COc1c(O)c(C)c(C/C=C(\C)CCC=C(C)C)c(O)c1OC [Compound Q2H2, ubiquinol-2]
[2]
  specific catalytic activity ± SEM: 8.7 ± 2.5 µmol/min/mg
  specific catalytic activity: 8.65 ± 2.5 µmol/min/mg

## Cc1c(-c2ccc(Cc3ccccc3)cc2)[nH]c2ccccc2c1=O [CK-2-88, 2-(4-Benzylphenyl)-3-methylquinolin-4(1H)-one]
HepG2 cell line
  HepG2: >100 µM
M. tuberculosis H37Rv
  activity at 5 µM: 90.5%
Bovine cytochrome bc1
  IC50: 340 nM
[3]
  inhibition @ 1 uM (% of cntls): 87.5 % of cntls

## COc1nc2ccc(Br)cc2cc1[C@@H](c1ccccc1)[C@@](O)(CCN(C)C)c1cccc2ccccc12 [TMC 207, bedaquiline]
[1]; [8]
  Time to Positivity: 12 days
[1]; [9]
  Time to Positivity: 13 days
[4]
  death in treatment group: 11.4%

## Cc1c(-c2ccc(-c3ccc(C(F)(F)F)nc3)nc2)[nH]c2ccccc2c1=O [PG-128, 3-Methyl-2-(6′-(trifluoromethyl)-[2,3′-bipyridin]-5-yl)quinolin-4(1H)-one]
M. tuberculosis H37Rv
  activity at 5 µM: 95.6%

## Cc1c(OCC(F)(F)F)ccnc1CSc1nc2ccccc2[nH]1 [Lansoprazole sulphide, lansoprazole sulfide]
[1]; [9]
  Time to Positivity: 13 days
[1]; lansoprazole sulfide 26.5 μM, CK-2-63 35 μM, drug-free control 10 days
  Time to positivity (TtP): 13 days

## recombinant M. tuberculosis bd-I (Mycobacterium tuberculosis H37Rv)
[5]
  Km: 65.21 ± 15.31 µM and 65.2 ± 15.3 µM
[6]
  Km: 51.55 ± 8.9 µM and 51.6 ± 8.9 µM and 51.8 ± 6.1 µM

## Cc1c(-c2ccc(N3CCCCC3)cc2)[nH]c2ccccc2c1=O [RKA-307, 3-Methyl-2-(4-(piperidin-1-yl)phenyl)quinolin-4(1H)-one]
M. tuberculosis H37Rv
  activity at 5 µM: 1.8%

## Cc1c(-c2ccc(N3CCC(F)(F)C3)cc2)[nH]c2cc(F)cc(F)c2c1=O [MTC420]
[1]; FIG. 3, repeated 3 times
  Time to positivity / outgrowth of Mtb in MGITs: 11 to 13 days
[1]; [7]
  Time to Positivity: 18 days
[1]; [9]
  Time to Positivity: 13 days
Mtb H37Rv
  IC50: 520 nM

## CCCCCCCCCCc1c(C)c(O)c(OC)c(OC)c1O [dQH2, decylubiquinol]
[2]
  specific catalytic activity ± SEM: 9.0 ± 0.2 µmol/min/mg and 5.1 ± 0.3 µmol/min/mg and 6.2 ± 0.5 µmol/min/mg
  specific catalytic activity: 5.1 ± 0.29 µmol/min/mg

## Cc1c(-c2cnn(Cc3ccc(OC(F)(F)F)cc3)c2)[nH]c2ccccc2c1=O [WDH-2A-9, 3-Methyl-2-(1-(4-(trifluoromethoxy)benzyl)-1H-pyrazol-4-yl)quinolin-4(1H)-one]
M. tuberculosis H37Rv
  activity at 5 µM: 97.4%

## Cc1c(-c2ccc(N3CCCCC3)cc2)[nH]c2cc(F)cc(F)c2c1=O [MTD-403, 5,7-Difluoro-3-methyl-2-(4-(piperidin-1-yl)phenyl)quinolin-4(1H)-one]
M. tuberculosis H37Rv
  Growth of M. tuberculosis H37Rv (aerobic) at 5 μM of [compounds]: No growth

## Cc1c(-c2ccc(-c3ccc(C(F)(F)F)cc3)nc2)[nH]c2ccccc2c1=O [RKA 142, 3-Methyl-2-(6-(4-(trifluoromethyl)phenyl)pyridin-3-yl)quinolin-4(1H)-one]
[3]
  inhibition @ 1 uM (% of cntls): >50 % of cntls

## CCOC(=O)c1c(-c2ccc(Cc3ccc(OC(F)(F)F)cc3)cc2)[nH]c2ccccc2c1=O [GN-1710, Ethyl 4-oxo-2-(4-(4-(trifluoromethoxy)benzyl)phenyI)-1,4-dihydroquinoline-3-carboxylate]
M. tuberculosis H37Rv
  activity at 5 µM: 100%

## O=c1cc(-c2cnn(Cc3ccc(OC(F)(F)F)cc3)c2)[nH]c2ccccc12 [WDH-1W-5, 2-(1-(4-(Trifluoromethoxy)benzyl)-1H-pyrazol-4-yl)quinolin-4(1H)-one]
M. tuberculosis H37Rv
  activity at 5 µM: 61.3%

## COc1ccc2c(=O)c(C)c(-c3ccc(Oc4ccc(OC(F)(F)F)cc4)nc3)[nH]c2c1 [RKA-259, 7-Methoxy-3-methyl-2-(6-(4-(trifluoromethoxy)phenoxy)pyridin-3-yl)quinolin-4(1H)-one]
M. tuberculosis H37Rv
  activity at 5 µM: 12.6%

## COc1cccc2[nH]c(-c3ccc(-c4ccc(OC(F)(F)F)cc4)nc3)c(C)c(=O)c12 [SCR-04-04, 5-Methoxy-3-methyl-2-(6-(4-(trifluoromethoxy)phenyl)pyridin-3-yl)quinolin-4(1H)-one]
[3]
  inhibition @ 1 uM (% of cntls): 65.4 % of cntls

## CO[C@H]1/C=C/O[C@@]2(C)Oc3c(C)c(O)c4c(O)c(c(/C=N/N5CCN(C)CC5)c(O)c4c3C2=O)NC(=O)/C(C)=C\C=C\[C@H](C)[C@H](O)[C@@H](C)[C@@H](O)[C@@H](C)[C@H](OC(C)=O)[C@@H]1C [Rifampicin]
[1]; [7]
  Time to Positivity: No effect at 74 days

## CC(C)c1c(-c2cnn(Cc3ccc(OC(F)(F)F)cc3)c2)[nH]c2ccccc2c1=O [WDH-2G-6, 3-Isopropyl-2-(1-(4-(trifluoromethoxy)benzyl)-1H-pyrazol-4-yl)quinolin-4(1H)-one]
[1]; [9]
  Time to Positivity: 10 days
[3]
  inhibition @ 1 uM (% of cntls): 81.6 % of cntls

## COc1c(O)c(C)c(CC=C(C)C)c(O)c1OC [Compound Q1H2, ubiquinol-1]
[2]
  specific catalytic activity: 5.26 ± 0.52 µmol/min/mg
